# In patent US8961927B2, “Agents for magnetic imaging method” (Bracco Imaging S.p.A., priority 2002, dated 2015):
# How the values were obtained:
# Format in all cases: cell-based
# [1] = test system: human hepatoma cells HepG2; assay: Differential uptake in hepatocytes and hepatoma cell lines HepG2, EBSS without glucose, compound of Example 3; conditions: substrate 5.1 mM, time course, FIG. 2
# Procedure: The cells were cultured as in Example 12 above. The uptake experiments were performed in 5 ml EBSS without glucose to avoid competition between this compound and the test compound.
# The substrate concentration was 5.1 mM and a time course analysis was done.
# [2] = test system: panel of cancer cell lines; assay: Uptake in a panel of cancer cell lines compared with healthy hepatocytes, compound of Example 3; conditions: substrate 5.1 mM; after 2 hours; FIG. 3
# Procedure: The substrate concentration was 5.1 mM and the uptake was measured after 2 hours from the administration of the test compound.
# human hepatoma cells HTC = assay: Differential uptake in rat hepatocytes and human hepatoma cells HTC, time course; conditions: substrate 1.3 mM, 37° C. in EBSS
# Procedure: This experiment has been carried out as follows:
# Rat hepatocytes were cultured in M199 medium supplemented with 2 mg/ml bovine serum albumin (BSA), 3.6 mg/ml Hepes, 100 U/ml penicillin, 100 U/μg streptomycin, and 10 nmol/insulin; HTC cells were cultured in RPMI 1640 medium supplemented with 10% foetal bovine serum, 100 U/ml penicillin and 100 U/μg streptomycin.
# The uptake experiments were performed in 5 ml EBSS, Earl's Balanced Salt Solution, (CaCl2 0.266 g/l; KCl 0.4 g/l; NaCl 6.8 g/l; glucose 1 g/l; MgSO4 0.204 g/l; NaH2PO4 0.144 g/l; NaHCO3 2.2 g/l).
# […] The substrate concentration was for both cell lines 1.3 mM.
Substance,uptake in human hepatoma cells HepG2 compared with hepatocyte [1],uptake of Gd in cancer cell lines compared with healthy hepatocytes [2],uptake by the human hepatoma cells HTC relative to the one in hepatocytes (human hepatoma cells HTC; after 0.5 hour),uptake by the human hepatoma cells HTC relative to the one in hepatocytes (human hepatoma cells HTC; after six hours),uptake by the human hepatoma cells HTC relative to the one in hepatocytes (human hepatoma cells HTC; at 2 hours)
"Gadolinium Complex of 3,6,9-triaza-3,6,9-tricarboxymethylundecanoic acid bis-glucopyranosylamide [Example 3]",higher uptake,increased in all the cancer cell lines,–,–,–
"Gadolinium Complex of [4-(1,6,10-triazaundecan)-phenyl-aminocarbonylmethyl]-1,4,7,10-tetraazacyclododecan-4,7,10-triacetic acid [Example 11]",–,–,⅓,more than 4 times,more than 3 times
